Drawing on the NIST ThermoML archive (doi:10.1021/je050462y), this text covers mass density and viscosity for five compounds.

Numbers after ± are expanded uncertainties.

The conditions of data set [1]: 101.33 kPa, Liquid.
A short description of data set [2]: wn = mass fraction of the nth substance listed. The following applies: 101 kPa, Liquid; for viscosity: Capillary tube (Ostwald / Ubbelohde) method, w1 = 0.5; for mass density: w1 = 0.3.

`CC(C)(N)CO` [2-amino-2-methylpropan-1-ol]: the mass density is 917.2 ± 0.6 kg/m3 in data set [1] (313.15 K), 909.2 ± 0.6 kg/m3 in data set [1] (323.15 K) and 900.7 ± 0.6 kg/m3 in data set [1] (333.15 K).
The like results for `CN(CCO)CCO` [N-methyldiethanolamine] were, in that order, 1025 ± 0.6 kg/m3, 1017.4 ± 0.6 kg/m3 and 1009.6 ± 0.6 kg/m3.
Consider `OCCNCCO` [diethanolamine], for which the values for the mass density in data set [1] (313.15 K), in data set [1] (323.15 K) and in data set [1] (333.15 K) were 1084.7 ± 0.3 kg/m3, 1077.4 ± 0.3 kg/m3 and 1070.3 ± 0.3 kg/m3, respectively.
On to `CN(CCO)CCO` [N-methyldiethanolamine] + O, for which the viscosity came to 7.39 ± 0.07 mPa·s in data set [2] (303.15 K), 5.08 ± 0.05 mPa·s in data set [2] (313.15 K), 3.62 ± 0.03 mPa·s in data set [2] (323.15 K) and 2.72 ± 0.03 mPa·s in data set [2] (333.15 K). Besides, the mass density in data set [2] (313.15 K) was 1017.1 ± 0.6 kg/m3; in data set [2] (323.15 K), 1011.5 ± 0.6 kg/m3; in data set [2] (333.15 K) it was 1004.1 ± 0.6 kg/m3.
For `OCCNCCO` [diethanolamine] + O, the mass density in data set [2] (313.15 K) worked out at 1026 ± 0.5 kg/m3; in data set [2] (323.15 K), 1021.3 ± 0.5 kg/m3; in data set [2] (333.15 K), 1014.4 ± 0.4 kg/m3.
